Values quoted from earlier work, collected in patent US20240050950A1, “GRADIENT-BASED MICROFLUIDIC CIRCUIT, DEVICE, AND METHOD FOR PERFORMING AN ASSAY” (priority 2020, published 2024).
Where a name gives a salt, the structure may show the parent alone. Read-outs that look alike come from different tables or passages of the source. Square brackets hold non-standard residues; d marks the D form. Peptide text beside a SMILES is read from it. * marks the point of attachment. dPhe(4-NHCONH2) = NC(=O)Nc1ccc(C[C@@H](N)C(=O)O)cc1; Dihydroorotyl(S) = O=C1C[C@@H](C(=O)*)NC(=O)N1; dPhe(4-Cl) = N[C@H](Cc1ccc(Cl)cc1)C(=O)O; Phe(4-NH2) = Nc1ccc(C[C@H](N)C(=O)O)cc1; d2Nal = N[C@H](Cc1ccc2ccccc2c1)C(=O)O; Lys(iPr) = CC(C)NCCCC[C@H](N)C(=O)O; d3Pal = N[C@H](Cc1cccnc1)C(=O)O

Conditions: cited from earlier work
[1] = Table 1, antimicrobial agents/drugs

Compound	Molar volume [1] [cm^3]	Molar volume (Table 2, anticancer drugs) [cm^3]
N[C@@H](C(=O)N[C@@H]1C(=O)N2C(C(=O)O)=C(Cl)CS[C@H]12)c1ccccc1 [Cefaclor]	226.4 ± 5.0	–
CC1=C(C(=O)O)N2C(=O)[C@@H](NC(=O)[C@H](N)c3ccccc3)[C@H]2SC1 [Cefalexin]	231.3 ± 5.0	–
CO[C@@]1(NC(=O)CSCC#N)C(=O)N2C(C(=O)O)=C(CSc3nnnn3C)CS[C@@H]21 [Cefmetazole]	268.3 ± 7.0	–
NC(=O)c1cc[n+](CC2=C(C(=O)O)N3C(=O)[C@@H](NC(=O)[C@@H](c4ccccc4)S(=O)(=O)[O-])[C@H]3SC2)cc1 [Cefsulodin (Ulfaret), Cefsulodin]	316.5 ± 7.0	–
CC(C)(O/N=C(\C(=O)N[C@@H]1C(=O)N2C(C(=O)[O-])=C(C[n+]3ccccc3)CS[C@H]12)c1csc(N)n1)C(=O)O [Ceftazidime]	330.2 ± 7.0	–
CO/N=C(\C(=O)N[C@@H]1C(=O)N2C(C(=O)O)=C(CSc3nc(=O)c(=O)[nH]n3C)CS[C@H]12)c1csc(N)n1 [Ceftriaxone]	281.7 ± 7.0	–
C/C=C(\C)C(=O)N[C@@H](c1ccccc1)[C@@H](O)C(=O)O[C@H]1C[C@@]2(O)[C@@H](OC(=O)c3ccccc3)[C@@H]3[C@]4(OC(C)=O)CO[C@@H]4C[C@H](O)[C@@]3(C)C(=O)[C@H](OC(C)=O)C(=C1C)C2(C)C [Cephalomannine (NSC 318735), Cephalomannine]	609.9 ± 5.0	–
CC(=O)OCC1=C(C(=O)O)N2C(=O)[C@@H](NC(=O)Cc3cccs3)[C@H]2SC1 [Cephalothin (Cefalotin), Cephalothin]	252.7 ± 5.0	–
CC1=C(C(=O)O)N2C(=O)[C@@H](NC(=O)[C@H](N)C3=CCC=CC3)[C@H]2SC1 [Cephradine (Cefradine), Cephradine]	237.2 ± 5.0	–
Cc1cc(Nc2ncc(Cl)c(Nc3ccccc3S(=O)(=O)C(C)C)n2)c(OC(C)C)cc1C1CCNCC1 [Ceritinib (Zykadia), Ceritinib]	–	445.9 ± 3.0
COc1cccc2c1C(=O)c1c(O)c3c(c(O)c1C2=O)C[C@@](O)(C(C)=O)C[C@@H]3O[C@H]1C[C@H](N)[C@H](O)[C@H](C)O1 [Cerubidine (Daunorubicin Hydrochloride), Daunorubicin Hydrochloride]	–	339.4 ± 5.0
C/C=C/C/C=C/CCC(=O)[C@H]1O[C@H]1C(N)=O [Cerulenin]	196.7 ± 3.0	–
O=C(O)CCCc1ccc(N(CCCl)CCCl)cc1 [Chlorambucil]	–	243.6 ± 3.0
[H]/N=C(\N/C(=N/[H])NCCCCCCNC(=N)NC(=N)Nc1ccc(Cl)cc1)Nc1ccc(Cl)cc1 [Chlorhexidine]	363.3 ± 7.0	–
CO[C@@H]1[C@H](O)C[C@@H](O[C@@H]2C[C@H](Oc3cc4cc5c(c(O)c4c(O)c3C)C(=O)[C@@H](O[C@H]3C[C@@H](O[C@H]4C[C@@H](O[C@H]6C[C@](C)(O)[C@@H](OC(C)=O)[C@H](C)O6)[C@H](O)[C@@H](C)O4)[C@H](O)[C@@H](C)O3)[C@H]([C@H](OC)C(=O)[C@@H](O)[C@@H](C)O)C5)O[C@H](C)[C@@H]2OC(C)=O)O[C@@H]1C [Chromomycin A3]	827.2 ± 5.0	–
C=Cc1cc(OC)c2c(c1)c(=O)oc1c2cc(OC)c2c(O)ccc([C@H]3O[C@@H](C)[C@@H](O)[C@](C)(O)[C@@H]3O)c21 [Chrysomycin A (MFCD07370133), Chrysomycin A]	361.7 ± 3.0	–
COc1cc2c(oc(=O)c3cc(C)cc(OC)c32)c2c([C@@H]3O[C@H](C)[C@H](O)[C@@](C)(O)[C@H]3O)ccc(O)c12 [Chrysomycin B (MFCD07370132), Chrysomycin B]	352.0 ± 3.0	–
Nc1nc(Cl)nc2c1ncn2[C@H]1C[C@H](O)[C@@H](CO)O1 [Cladribine]	–	140.1 ± 7.0
CC[C@H]1OC(=O)[C@H](C)[C@@H](O[C@H]2C[C@@](C)(OC)[C@@H](O)[C@H](C)O2)[C@H](C)[C@@H](O[C@@H]2O[C@H](C)C[C@H](N(C)C)[C@H]2O)[C@](C)(OC)C[C@@H](C)C(=O)[C@H](C)[C@@H](O)[C@]1(C)O [Clarithromycin]	631.9 ± 5.0	–
Nc1nc(Cl)nc2c1ncn2[C@@H]1O[C@H](CO)[C@@H](O)[C@@H]1F [Clofarabine]	–	143.0 ± 7.0
CC(C)/N=c1\cc2n(-c3ccc(Cl)cc3)c3ccccc3nc-2cc1Nc1ccc(Cl)cc1 [Clofazimine]	366.0 ± 7.0	–
Clc1ccccc1C(c1ccccc1)(c1ccccc1)n1ccnc1 [Clotrimazole]	302.7 ± 7.0	–
O=C(c1ccc(F)c(F)c1Nc1ccc(I)cc1F)N1CC(O)([C@@H]2CCCCN2)C1 [Cobimetinib]	–	311.3 ± 3.0

Compound	Molar volume [1] [cm^3]	Molar volume (Table 2, anticancer drugs) [cm^3]
C/C=C/[C@H]1O[C@@](O)([C@@H](C)[C@H](O)[C@H](C)[C@H]2OC(=O)/C(OC)=C/C(C)=C/[C@@H](C)[C@@H](O)[C@@H](CC)[C@@H](O)[C@H](C)C/C(C)=C/C=C/[C@@H]2OC)C[C@@H](O[C@H]2C[C@@H](O)[C@H](OC(N)=O)[C@@H](C)O2)[C@@H]1C [Concanamycin A (Folimycin), Concanamycin A]	703.1 ± 7.0	–
Nc1ncnc2c1ncn2[C@@H]1O[C@H](CO)C[C@H]1O [Cordycepin (3′-Deoxyadenosine), 3′-Deoxyadenosine]	130.8 ± 7.0	–
CO[C@H]1[C@H](OC(=O)c2ccc(C)[nH]2)[C@H](O)[C@@H](Oc2ccc3c(O)c(NC(=O)c4c[nH]c(C(=O)Nc5c(O)c6ccc(O[C@H]7OC(C)(C)[C@@H](OC)[C@H](OC(=O)c8ccc(C)[nH]8)[C@@H]7O)c(C)c6oc5=O)c4C)c(=O)oc3c2C)OC1(C)C [Coumermycin Al, Coumermycin A1]	718.6 ± 5.0	–
C[C@@H](Oc1cc(-c2cnn(C3CCNCC3)c2)cnc1N)c1c(Cl)ccc(F)c1Cl [Crizotinib (Xalkori), Crizotinib]	–	305.2 ± 7.0
Nc1ccn([C@@H]2O[C@H](CO)[C@@H](O)[C@@H]2O)c(=O)n1 [Cytarabine (Tarabine PFS), Cytarabine]	–	128.4 ± 7.0
C=C1[C@@H](C)[C@H]2[C@H](Cc3ccccc3)NC(=O)[C@]23OC(=O)/C=C/[C@H](O)CCC[C@@H](C)C/C=C/[C@H]3[C@@H]1O [Cytochalasin B (Phomin), Cytochalasin B]	396.8 ± 5.0	–
C=C1[C@@H](C)[C@H]2[C@H](Cc3ccccc3)NC(=O)[C@]23[C@H](OC(C)=O)/C=C/[C@@](C)(O)C(=O)[C@@H](C)C/C=C/[C@H]3[C@@H]1O [Cytochalasin D (Zygosporin A, 1632828), Cytochalasin D]	410.0 ± 5.0	–
N[C@@H]1CONC1=O [D-Cycloserine]	79.8 ± 3.0	–
CC1(C)S[C@@H]2[C@H](NC(=O)[C@H](NC(=O)N3CCNC3=O)c3ccccc3)C(=O)N2[C@H]1C(=O)O [D-α-([Imidazolidin-2-on-1-yl]carbonylamino)benzylpenicillin]	296.6 ± 5.0	–
CC(C)(C)c1nc(-c2cccc(NS(=O)(=O)c3c(F)cccc3F)c2F)c(-c2ccnc(N)n2)s1 [Dabrafenib (Tafinlar), Dabrafenib]	–	359.8 ± 3.0
COc1cc2ncnc(Nc3ccc(F)c(Cl)c3)c2cc1NC(=O)/C=C/CN1CCCCC1 [Dacomitinib (Vizimpro), Dacomitinib]	–	349.4 ± 3.0
CCCCCCCCCC(=O)N[C@@H](Cc1c[nH]c2ccccc12)C(=O)N[C@H](CC(N)=O)C(=O)N[C@@H](CC(=O)O)C(=O)N[C@@H]1C(=O)NCC(=O)N[C@@H](CCCN)C(=O)N[C@@H](CC(=O)O)C(=O)N[C@H](C)C(=O)N[C@@H](CC(=O)O)C(=O)NCC(=O)N[C@H](CO)C(=O)N[C@@H]([C@H](C)CC(=O)O)C(=O)N[C@@H](CC(=O)c2ccccc2N)C(=O)O[C@@H]1C [Daptomycin]	1110.7 ± 5.0	–
COc1cccc2c1C(=O)c1c(O)c3c(c(O)c1C2=O)C[C@@](O)(C(C)=O)C[C@@H]3O[C@H]1C[C@H](N)[C@H](O)[C@H](C)O1 [Daunorubicin (Daunomycin), Daunorubicin]	339.4 ± 5.0	–
CC(=O)N[C@H](Cc1ccc2ccccc2c1)C(=O)N[C@H](Cc1ccc(Cl)cc1)C(=O)N[C@H](Cc1cccnc1)C(=O)N[C@@H](CO)C(=O)N[C@@H](Cc1ccc(NC(=O)[C@@H]2CC(=O)NC(=O)N2)cc1)C(=O)N[C@H](Cc1ccc(NC(N)=O)cc1)C(=O)N[C@@H](CC(C)C)C(=O)N[C@@H](CCCCNC(C)C)C(=O)N1CCC[C@H]1C(=O)N[C@H](C)C(N)=O [Degarelix] (Ac-[d2Nal][dPhe(4-Cl)][d3Pal]S[Phe(4-NH2)](Dihydroorotyl(S))[dPhe(4-NHCONH2)]L[Lys(iPr)]P[dA]-NH2)	–	1231.3 ± 3.0
CN(C)[C@@H]1C(O)=C(C(N)=O)C(=O)[C@@]2(O)C(O)=C3C(=O)c4c(O)ccc(Cl)c4[C@@H](O)[C@H]3C[C@@H]12 [Demeclocycline]	265.1 ± 5.0	–
C[C@@H](CN1CC(=O)NC(=O)C1)N1CC(=O)NC(=O)C1 [Dexrazoxane Hydrochloride]	–	201.2 ± 3.0
Oc1ccc(Cl)cc1Cc1cc(Cl)ccc1O [Dichlorophene]	189.5 ± 3.0	–
Cc1onc(-c2c(Cl)cccc2Cl)c1C(=O)N[C@@H]1C(=O)N2[C@@H]1SC(C)(C)[C@@H]2C(=O)O [Dicloxacillin]	290.0 ± 5.0	–
CN1CCN(c2cc3c(cc2F)c(=O)c(C(=O)O)cn3-c2ccc(F)cc2)CC1 [Difloxacin]	283.2 ± 3.0	–
CN[C@@H]1[C@H](O[C@H]2[C@H](O[C@H]3[C@H](O)[C@@H](O)[C@H](NC(=N)N)[C@@H](O)[C@@H]3NC(=N)N)O[C@@H](C)[C@]2(O)CO)O[C@@H](CO)[C@H](O)[C@H]1O [Dihydrostreptomycin]	293.4 ± 7.0	–
Cc1ncc([N+](=O)[O-])n1C [Dimetridazole]	103.4 ± 7.0	–
CC(=O)O[C@@]12CO[C@@H]1C[C@H](O)[C@@]1(C)C(=O)[C@H](O)C3=C(C)[C@@H](OC(=O)[C@H](O)[C@@H](NC(=O)OC(C)(C)C)c4ccccc4)C[C@@](O)([C@@H](OC(=O)c4ccccc4)[C@H]21)C3(C)C [Docetaxel (Taxotere), Docetaxel]	–	585.7 ± 5.0
COc1cccc2c1C(=O)c1c(O)c3c(c(O)c1C2=O)C[C@@](O)(C(=O)CO)C[C@@H]3O[C@H]1C[C@H](N)[C@H](O)[C@H](C)O1 [Doxorubicin]	336.6 ± 5.0	336.6 ± 5.0
